Results from patent US12723063B2, “GIPR-agonist compounds” (Eli Lilly and Company, priority 2019, dated 2026).
*1 amine or outer side, *2 acyl side, *3 side chain or, on linkers, in order; H or OH if unused. Where a SMILES comes first, the peptide text is derived from it. Side-chain parts run from the residue outwards. [ ]: non-standard residue; d: D form. The star is where a group is joined. C20 diacid = O=C(O)CCCCCCCCCCCCCCCCCCC(=O)*; C18 diacid = O=C(O)CCCCCCCCCCCCCCCCC(=O)*; γGlu = O=C(O)[C@H](CCC(=O)[*:2])N[*:1]; 4Pal = N[C@@H](Cc1ccncc1)C(=O)O; αMeL = CC(C)C[C@](C)(N)C(=O)O; Orn = NCCC[C@H](N)C(=O)O; AEEA = NCCOCCOCC(=O)O; Aib = CC(C)(N)C(=O)O

Columns and labels:
human GIPR = molecular target: T1, human GIPR (Homo sapiens, UniProt P48546); experiment: [125I]-GIP binding, SPA with WGA beads, 0.1% bacitracin; conditions: geometric mean, read-out: hGIPR Ki
T1 construct: expressed in transfected cells; crude membranes
T1 sequence (P48546 22-466): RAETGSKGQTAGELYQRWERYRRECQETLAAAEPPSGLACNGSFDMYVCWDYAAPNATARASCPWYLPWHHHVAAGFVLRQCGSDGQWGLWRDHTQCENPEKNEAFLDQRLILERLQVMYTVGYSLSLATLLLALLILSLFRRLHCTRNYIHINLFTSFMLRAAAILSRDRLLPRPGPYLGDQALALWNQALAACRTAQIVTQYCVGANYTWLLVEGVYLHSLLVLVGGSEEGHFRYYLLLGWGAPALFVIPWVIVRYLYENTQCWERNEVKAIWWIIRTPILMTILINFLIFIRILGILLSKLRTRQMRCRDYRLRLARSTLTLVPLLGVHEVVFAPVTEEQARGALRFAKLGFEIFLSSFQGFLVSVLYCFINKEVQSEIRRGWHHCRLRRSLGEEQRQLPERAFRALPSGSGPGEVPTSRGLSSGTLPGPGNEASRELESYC
How it was run: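 Ki values are geometric means (SEM, n independent days), derived from four-parameter nonlinear regression of IC50. Membranes came from hGIPR-expressing CHO cells.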

[1] = molecular target: T2, human glucose-dependent insulinotropic peptide receptor (GIPR) (Homo sapiens, UniProt P48546); experiment: cAMP functional assay (HTRF) in HEK293 cells in presence of 0.1% casein; assay type: cell-based; conditions: HEK293 cells expressing human GIPR, geometric mean, read-out: hGIPR cAMP Rel EC50 nM (SEM, n)
T2 construct: expressed in transfected cells; host or cells: HEK293
T2 sequence (P48546 22-466): T1 sequence (P48546 22-466)

Row | Structure (SMILES) | Ki (human GIPR) [nM] | EC50 [1] [nM]
1 | CC[C@H](C)[C@H](NC(=O)[C@H](CCCN)NC(=O)[C@H](CC(=O)O)NC(=O)[C@H](CC(C)C)NC(=O)[C@](C)(CC(C)C)NC(=O)[C@@H](NC(=O)[C@H](CO)NC(=O)[C@H](Cc1ccc(O)cc1)NC(=O)[C@H](CC(=O)O)NC(=O)[C@H](CO)NC(=O)[C@@H](NC(=O)[C@H](Cc1ccccc1)NC(=O)[C@@H](NC(=O)CNC(=O)[C@H](CCC(=O)O)NC(=O)C(C)(C)NC(=O)[C@@H](N)Cc1ccc(O)cc1)[C@@H](C)O)[C@@H](C)CC)[C@@H](C)CC)C(=O)N[C@@H](Cc1c[nH]cn1)C(=O)N[C@@H](CCC(N)=O)C(=O)NC(C)(C)C(=O)N[C@@H](CCC(=O)O)C(=O)N[C@@H](Cc1ccccc1)C(=O)N[C@H](C(=O)N[C@@H](CCC(=O)O)C(=O)N[C@@H](Cc1ccc(O)cc1)C(=O)N[C@@H](CCCCNC(=O)COCCOCCNC(=O)COCCOCCNC(=O)CC[C@H](NC(=O)CCCCCCCCCCCCCCCCCCC(=O)O)C(=O)O)C(=O)N[C@@H](CC(C)C)C(=O)N[C@@H](CCC(=O)O)C(=O)N[C@@H](CCC(N)=O)C(=O)NCC(=O)N1CCC[C@H]1C(=O)N[C@@H](CO)C(=O)N[C@@H](CO)C(=O)NCC(=O)N[C@@H](C)C(=O)N1CCC[C@H]1C(=O)N1CCC[C@H]1C(=O)N1CCC[C@H]1C(=O)N[C@@H](CO)C(N)=O)C(C)C [Example 106] (H-Y[Aib]EGTFISDYSI[αMeL]LD[Orn]IHQ[Aib]EFVEYK([AEEA-AEEA-γGlu-C20 diacid])LEQGPSSGAPPPS-NH2) | 0.0918 | 0.014
2 | CC[C@H](C)[C@H](NC(=O)[C@H](CO)NC(=O)[C@H](Cc1ccc(O)cc1)NC(=O)[C@H](CC(=O)O)NC(=O)[C@H](CO)NC(=O)[C@@H](NC(=O)[C@H](Cc1ccccc1)NC(=O)[C@@H](NC(=O)CNC(=O)[C@H](CCC(=O)O)NC(=O)[C@@H](C)NC(=O)[C@@H](N)Cc1ccc(O)cc1)[C@@H](C)O)[C@@H](C)CC)C(=O)N[C@@H](CC(C)C)C(=O)N[C@@H](CC(C)C)C(=O)N[C@@H](CC(=O)O)C(=O)N[C@@H](CCCCN)C(=O)N[C@@H](CCCCNC(=O)COCCOCCNC(=O)COCCOCCNC(=O)CC[C@H](NC(=O)CCCCCCCCCCCCCCCCC(=O)O)C(=O)O)C(=O)N[C@@H](C)C(=O)N[C@@H](CCC(N)=O)C(=O)NC(C)(C)C(=O)N[C@@H](CC(=O)O)C(=O)N[C@@H](Cc1ccccc1)C(=O)N[C@H](C(=O)N[C@@H](CC(N)=O)C(=O)N[C@@H](Cc1c[nH]c2ccccc12)C(=O)N[C@@H](CC(C)C)C(=O)N[C@@H](CC(C)C)C(=O)N[C@@H](CCC(=O)O)C(=O)N[C@@H](CCC(N)=O)C(=O)NCC(=O)N1CCC[C@H]1C(=O)N[C@@H](CO)C(=O)N[C@@H](CO)C(=O)NCC(=O)N[C@@H](C)C(=O)N1CCC[C@H]1C(=O)N1CCC[C@H]1C(=O)N1CCC[C@H]1C(=O)N[C@@H](CO)C(N)=O)C(C)C [Example 17] (H-Y[dA]EGTFISDYSILLDKK([AEEA-AEEA-γGlu-C18 diacid])AQ[Aib]DFVNWLLEQGPSSGAPPPS-NH2) | 0.0571 | 0.0135
3 | CC[C@H](C)[C@H](NC(=O)[C@H](CCCCN)NC(=O)[C@H](CC(=O)O)NC(=O)[C@H](CC(C)C)NC(=O)[C@](C)(CC(C)C)NC(=O)[C@@H](NC(=O)[C@H](CO)NC(=O)[C@H](Cc1ccc(O)cc1)NC(=O)[C@H](CC(=O)O)NC(=O)[C@H](CO)NC(=O)[C@@H](NC(=O)[C@H](Cc1ccccc1)NC(=O)[C@@H](NC(=O)CNC(=O)[C@H](CCC(=O)O)NC(=O)C(C)(C)NC(=O)[C@@H](N)Cc1ccc(O)cc1)[C@@H](C)O)[C@@H](C)CC)[C@@H](C)CC)C(=O)N[C@@H](Cc1c[nH]cn1)C(=O)N[C@@H](CCC(N)=O)C(=O)NC(C)(C)C(=O)N[C@@H](CCC(=O)O)C(=O)N[C@@H](Cc1ccccc1)C(=O)N[C@H](C(=O)N[C@@H](CCC(=O)O)C(=O)N[C@@H](Cc1ccncc1)C(=O)N[C@@H](CCCCNC(=O)COCCOCCNC(=O)COCCOCCNC(=O)CC[C@H](NC(=O)CCCCCCCCCCCCCCCCCCC(=O)O)C(=O)O)C(=O)N[C@@H](CC(C)C)C(=O)N[C@@H](CCC(=O)O)C(=O)NCC(=O)NCC(=O)N1CCC[C@H]1C(=O)N[C@@H](CO)C(=O)N[C@@H](CO)C(=O)NCC(=O)N[C@@H](C)C(=O)N1CCC[C@H]1C(=O)N1CCC[C@H]1C(=O)N1CCC[C@H]1C(=O)N[C@@H](CO)C(N)=O)C(C)C [Example 100] (H-Y[Aib]EGTFISDYSI[αMeL]LDKIHQ[Aib]EFVE[4Pal]K([AEEA-AEEA-γGlu-C20 diacid])LEGGPSSGAPPPS-NH2) | 0.0674 | 0.0224
4 | CC[C@H](C)[C@H](NC(=O)[C@H](CO)NC(=O)[C@H](Cc1ccc(O)cc1)NC(=O)[C@H](CC(=O)O)NC(=O)[C@H](CO)NC(=O)[C@@H](NC(=O)[C@H](Cc1ccccc1)NC(=O)[C@@H](NC(=O)CNC(=O)[C@H](CCC(=O)O)NC(=O)[C@@H](C)NC(=O)[C@@H](N)Cc1ccc(O)cc1)[C@@H](C)O)[C@@H](C)CC)C(=O)N[C@@H](CC(C)C)C(=O)N[C@@H](CC(C)C)C(=O)N[C@@H](CC(=O)O)C(=O)N[C@@H](CCCCN)C(=O)N[C@@H](CCCCNC(=O)COCCOCCNC(=O)COCCOCCNC(=O)CC[C@H](NC(=O)CCCCCCCCCCCCCCCCC(=O)O)C(=O)O)C(=O)N[C@@H](C)C(=O)N[C@@H](CCC(N)=O)C(=O)NC(C)(C)C(=O)N[C@@H](CCC(=O)O)C(=O)N[C@@H](Cc1ccccc1)C(=O)N[C@H](C(=O)N[C@@H](CCC(=O)O)C(=O)N[C@@H](Cc1c[nH]c2ccccc12)C(=O)N[C@@H](CC(C)C)C(=O)N[C@@H](CC(C)C)C(=O)N[C@@H](C)C(=O)NCC(=O)NCC(=O)N1CCC[C@H]1C(=O)N[C@@H](CO)C(=O)N[C@@H](CO)C(=O)NCC(=O)N[C@@H](C)C(=O)N1CCC[C@H]1C(=O)N1CCC[C@H]1C(=O)N1CCC[C@H]1C(=O)N[C@@H](CO)C(N)=O)C(C)C [Example 29] (H-Y[dA]EGTFISDYSILLDKK([AEEA-AEEA-γGlu-C18 diacid])AQ[Aib]EFVEWLLAGGPSSGAPPPS-NH2) | 0.0569 | 0.00679
5 | CC[C@H](C)[C@H](NC(=O)[C@H](CCCN)NC(=O)[C@H](CC(=O)O)NC(=O)[C@H](CC(C)C)NC(=O)[C@](C)(CC(C)C)NC(=O)[C@@H](NC(=O)[C@H](CO)NC(=O)[C@H](Cc1ccc(O)cc1)NC(=O)[C@H](CC(=O)O)NC(=O)[C@H](CO)NC(=O)[C@@H](NC(=O)[C@H](Cc1ccccc1)NC(=O)[C@@H](NC(=O)CNC(=O)[C@H](CCC(=O)O)NC(=O)C(C)(C)NC(=O)[C@@H](N)Cc1ccc(O)cc1)[C@@H](C)O)[C@@H](C)CC)[C@@H](C)CC)C(=O)N[C@@H](Cc1c[nH]cn1)C(=O)N[C@@H](CCC(N)=O)C(=O)NC(C)(C)C(=O)N[C@@H](CC(=O)O)C(=O)N[C@@H](Cc1ccccc1)C(=O)N[C@H](C(=O)N[C@@H](CCC(=O)O)C(=O)N[C@@H](Cc1ccc(O)cc1)C(=O)N[C@@H](CCCCNC(=O)COCCOCCNC(=O)COCCOCCNC(=O)CC[C@H](NC(=O)CCCCCCCCCCCCCCCCCCC(=O)O)C(=O)O)C(=O)N[C@@H](CC(C)C)C(=O)N[C@@H](CCC(=O)O)C(=O)NCC(=O)NCC(=O)N1CCC[C@H]1C(=O)N[C@@H](CO)C(=O)N[C@@H](CO)C(=O)NCC(=O)N[C@@H](C)C(=O)N1CCC[C@H]1C(=O)N1CCC[C@H]1C(=O)N1CCC[C@H]1C(=O)N[C@@H](CO)C(N)=O)C(C)C [Example 6] | 0.104 | 0.0176
